From patent US20190367516A1 (Bayer Pharma Aktiengesellschaft, priority 2015, published 2019)
Where two headings read alike, the source gives them in different places.

Assays:
[1] = molecular target: T1, human M2 receptor (Homo sapiens, UniProt P08172); assay type: cell-based; details: α >1 = positive cooperativity
T1 sequence (P08172 1-466): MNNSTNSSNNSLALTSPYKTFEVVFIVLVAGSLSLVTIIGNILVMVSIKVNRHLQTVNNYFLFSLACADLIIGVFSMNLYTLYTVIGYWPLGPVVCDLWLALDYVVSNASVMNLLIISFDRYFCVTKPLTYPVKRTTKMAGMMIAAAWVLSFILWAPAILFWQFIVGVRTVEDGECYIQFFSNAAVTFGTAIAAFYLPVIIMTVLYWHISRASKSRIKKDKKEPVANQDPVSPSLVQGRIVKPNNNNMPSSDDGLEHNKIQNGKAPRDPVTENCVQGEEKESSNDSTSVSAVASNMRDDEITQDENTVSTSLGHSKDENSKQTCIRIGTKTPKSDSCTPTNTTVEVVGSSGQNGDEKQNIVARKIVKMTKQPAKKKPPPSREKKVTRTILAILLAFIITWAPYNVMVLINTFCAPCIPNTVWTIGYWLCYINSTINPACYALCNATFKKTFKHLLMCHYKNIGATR
Experimental: B-1.2. Determination of Positive Cooperativity (α Factor)
In contrast to the EC50 determination of the test substances (see B-1.1), however, this is not done using one acetylcholine concentration; instead, every concentration of the test substance is combined with an acetylcholine 8-point dose-response curve. […] The shift in the acetylcholine dose-response curve in the presence of increasing concentrations of the test substance is analysed and quantified by means of GraphPad PRISM (Allosteric EC50 shift). […] Positive cooperativity is the hallmark of a positive allosteric modulator. […] The greater the magnitude of the α value, the greater the extent of cooperativity between orthosteric and allosteric.

[2] = molecular target: T1, human M2 receptor; details: for Emax: read-out: Efficiency, boosting of the acetylcholine effect at EC20 acetylcholine concentration; for Efficiency: boosting of the acetylcholine effect at EC20 acetylcholine concentration
[3] = shift in the acetylcholine dose-response curve (Allosteric EC50 shift, GraphPad PRISM)
[4] = Receptor activity EC50, M2-GIRK1/4 activation test, acetylcholine at EC20, allosteric potency, in some cases mean values from two or more determinations
[5] = shift of acetylcholine dose-response curve (Allosteric EC50 shift)
[6] = Receptor activity EC50, allosteric potency at EC20 acetylcholine, M2-GIRK1/4 reporter cells, in some cases mean of two or more determinations

Row | Cooperativity (alpha factor) [1, 3] | EC50 [2, 4] [nM] | Cooperativity (alpha factor) [1, 5] | EC50 [2, 6] [nM] | Emax ([2]; M2-GIRK1/4 reporter cells) [%] | Efficiency ([2]; M2-GIRK1/4 reporter cells) [%] | Compound
1 | 20 | 84 | – | – | – | – | CCC(NC(=O)c1cn(-c2ccc(F)cc2F)c2nc(N3CCN(C(=O)OC)CC3)ccc2c1=O)C(F)(F)F (single isomer, unassigned; enantiomer b) [Example 25, ent-Methyl 4-{8-(2,4-difluorophenyl)-5-oxo-6-[(1,1,1-trifluorobutan-2-yl)carbamoyl]-5,8-dihydro-1,8-naphthyridin-2-yl}piperazine-1-carboxylate (Enantiomer B)]
2 | 11 | 94 | – | – | – | – | CN(C)c1ccc2c(=O)c(C(=O)NCc3ccccc3C(F)(F)F)cn(-c3ccc(F)cc3F)c2n1 [Example 59, 1-(2,4-Difluorophenyl)-7-(dimethylamino)-4-oxo-N-[2-(trifluoromethyl)benzyl]-1,4-dihydro-1,8-naphthyridine-3-carboxamide]
3 | 31 | 157 | – | – | – | – | CC[C@@H](NC(=O)c1cn(-c2ccc(F)cc2F)c2nc(N3CCC(O)C3=O)ccc2c1=O)C(F)(F)F (mixture of isomers) [Example 224, 1-(2,4-Difluorophenyl)-7-[3-hydroxy-2-oxopyrrolidin-1-yl]-4-oxo-N-[(2R)-1,1,1-trifluorobutan-2-yl]-1,4-dihydro-1,8-naphthyridine-3-carboxamide]
4 | – | – | 44 | 11 | 100 | – | CCC(NC(=O)c1cn(-c2ccc(F)cc2F)c2nc(N3C[C@@H](O)CC3=O)ccc2c1=O)C(F)(F)C(F)(F)F (single isomer, unassigned) [Example 557]
5 | 25 | 38 | – | – | – | – | CC[C@@H](NC(=O)c1cn(-c2ccc(F)cc2F)c2nc(N3CC4CC4(O)C3)ccc2c1=O)C(F)(F)F (single isomer, unassigned) [Example 315]
6 | 18 | 36 | – | – | – | – | O=C(NC(c1ccccc1Cl)C(F)(F)F)c1cn(-c2ccc(F)cc2F)c2nc(N3CC[C@H](F)C3)ccc2c1=O (stereo partly drawn) [Example 217, N-[1-(2-Chlorophenyl)-2,2,2-trifluoroethyl]-1-(2,4-difluorophenyl)-7-[(3S)-3-fluoropyrrolidin-1-yl]-4-oxo-1,4-dihydro-1,8-naphthyridine-3-carboxamide]

Continued, compound first:

Row | Compound | Cooperativity (alpha factor) [1, 3] | EC50 [2, 4] [nM] | Cooperativity (alpha factor) [1, 5] | EC50 [2, 6] [nM] | Emax ([2]; M2-GIRK1/4 reporter cells) [%] | Efficiency ([2]; M2-GIRK1/4 reporter cells) [%]
7 | O=C(N[C@@H](C1CC1)C(F)(F)F)c1cn(-c2c(F)cc(F)cc2Cl)c2nc(N3C[C@@H](O)CC3=O)ccc2c1=O [Example 338, 1-(2-Chloro-4,6-difluorophenyl)-N-[(1 S)-1-cyclopropyl-2,2,2-trifluoroethyl]-7-[(4S)-4-hydroxy-2-oxopyrrolidin-1-yl]-4-oxo-1,4-dihydro-1,8-naphthyridine-3-carboxamide] | 24 | 7 | – | – | – | –
8 | CN(CCO)c1ccc2c(=O)c(C(=O)N[C@@H](C3CC3)C(F)(F)F)cn(-c3c(F)cc(F)cc3F)c2n1 [Example 384, N-[(1S)-1-Cyclopropyl-2,2,2-trifluoroethyl]-7-[(2-hydroxyethyl)(methyl)amino]-4-oxo-1-(2,4,6-trifluorophenyl)-1,4-dihydro-1,8-naphthyridine-3-carboxamide] | 22 | 28 | – | – | – | –
9 | O=C(NC12CC(C1)C2)c1cn(-c2c(F)cc(F)cc2Cl)c2nc(N3C[C@@H](O)[C@H](O)C3)ccc2c1=O [Example 402, N-(Bicyclo[1.1.1]pent-1-yl)-1-(2-chloro-4,6-difluorophenyl)-7-[(3R,4R)-3,4-dihydroxypyrrolidin-1-yl]-4-oxo-1,4-dihydro-1,8-naphthyridine-3-carboxamide] | – | – | 18 | 25 | 97.5 | –
10 | CC[C@H](NC(=O)c1cn(-c2c(F)cc(F)cc2Cl)c2nc(N3CCNC3=O)ccc2c1=O)C(F)(F)F [Example 340, 1-(2-Chloro-4,6-difluorophenyl)-4-oxo-7-(2-oxoimidazolidin-1-yl)-N-[(2S)-1,1,1-trifluorobutan-2-yl]-1,4-dihydro-1,8-naphthyridine-3-carboxamide] | 22 | 10 | – | – | – | –
11 | CC(NC(=O)c1cn(-c2c(F)cc(F)cc2F)c2nc(N3CCNC3=O)ccc2c1=O)C(F)(F)C(F)(F)F (racemic) [Example 542, 4-Oxo-7-(2-oxoimidazolidin-1-yl)-N-[3,3,4,4,4-pentafluorobutan-2-yl]-1-(2,4,6-trifluorophenyl)-1,4-dihydro-1,8-naphthyridine-3-carboxamide] | – | – | 36 | 19 | – | 98.5
12 | N#CC1CCCN(c2ccc3c(=O)c(C(=O)NC45CC6CC(CC(C6)C4)C5)cn(-c4ccc(F)cc4F)c3n2)C1 (centres unmarked) [Example 10, 7-(3-Cyanopiperidin-1-yl)-1-(2,4-difluorophenyl)-4-oxo-N-(tricyclo[3.3.1.1^3,7]dec-1-yl)-1,4-dihydro-1,8-naphthyridine-3-carboxamide] | 12 | 60 | – | – | – | –
13 | CC[C@H](NC(=O)c1cn(-c2c(F)cc(F)cc2Cl)c2nc(N3CCC(C)C3=O)ccc2c1=O)C(F)(F)F (single isomer, unassigned) [Example 425] | – | – | 9 | 5 | – | 90.5
14 | CC[C@H](NC(=O)c1cn(-c2c(F)cc(F)cc2F)c2nc(N3CC(CO)(CO)C3)ccc2c1=O)C(F)(F)F [Example 503, 7-[3,3-Bis(hydroxymethyl)azetidin-1-yl]-4-oxo-N-[(2S)-trifluorobutan-2-yl]-1-(2,4,6-trifluorophenyl)-1,4-dihydro-1,8-naphthyridine-3-carboxamide] | – | – | 24 | 28 | 88.5 | –
15 | CCC1CCN(c2ccc3c(=O)c(C(=O)N[C@@H](C4CC4)C(F)(F)F)cn(-c4c(F)cc(F)cc4F)c3n2)C(=O)N1 (single isomer, unassigned) [Example 448, N-[(1 S)-1-Cyclopropyl-2,2,2-trifluoroethyl]-7-[4-ethyl-2-oxotetrahydropyrimidin-1(2H)-yl]-4-oxo-1-(2,4,6-trifluorophenyl)-1,4-dihydro-1,8-naphthyridine-3-carboxamide] | – | – | 22 | 19 | – | 97.0
16 | CC(NC(=O)c1cn(-c2c(F)cc(F)cc2F)c2nc(N3C[C@@H](O)CC3=O)ccc2c1=O)(C1CC1)C(F)(F)F (single isomer, unassigned) [Example 510] | – | – | 46 | 6 | – | 94.0
17 | C[C@H](NC(=O)c1cn(-c2c(F)cc(F)cc2Cl)c2nc(N3CCC(C)(C)C3=O)ccc2c1=O)C(F)(F)F [Example 335, 1-(2-Chloro-4,6-difluorophenyl)-7-(3,3-dimethyl-2-oxopyrrolidin-1-yl)-4-oxo-N-[(2S)-1,1,1-trifluoropropan-2-yl]-1,4-dihydro-1,8-naphthyridine-3-carboxamide] | 7 | 23 | – | – | – | –
18 | COC(=O)[C@@H]1CN(c2ccc3c(=O)c(C(=O)N[C@@H](C4CC4)C(F)(F)F)cn(-c4c(F)cc(F)cc4F)c3n2)C(=O)O1 [Example 666, Methyl (5S)-3-[6-{[(1S)-1-cyclopropyl-2,2,2-trifluoroethyl]carbamoyl}-5-oxo-8-(2,4,6-trifluorophenyl)-5,8-dihydro-1,8-naphthyridin-2-yl]-2-oxo-1,3-oxazolidine-5-carboxylate] | – | – | 60 | 22 | 100 | –
